Test results: patent US5981558A, “DC107 derivatives” (Kyowa Hakko Kogyo Co., Ltd., priority 1996, dated 1999)
≈ marks a conversion by molar mass, not a printed value. Like-named read-outs stand apart in the source and are kept apart here.

Legend:
[1] = test system: EH: Enterococcus hirae ATCC 10541; experiment: Antimicrobial activity by the agar dilution method (MIC); format: cell-based; conditions: pH 7
Procedure: (§1) Antimicrobial activity was determined by the agar dilution method using a culture medium (pH 7) prepared by dissolving 3 g of Bacto-Tryptone (manufactured by Difco, Co.), 3 g of meat extract, 1 g of yeast extract, 1 g of glucose, and 16 g of agar in 1 l of water.

[2] = test system: SA: Staphylococcus aureus ATCC 6538P; experiment: as above; format: cell-based; conditions: ATCC6538P
Procedure: as §1

[3] = test system: BS: Bacillus substilis No. 10707; experiment: as above; format: cell-based
Procedure: as §1

[4] = test system: KP: Klebisiella pneumoniae ATCC 10031; experiment: as above; format: cell-based
Procedure: as §1

[5] = test system: EC: Escherichia coli ATCC 26; experiment: as above; format: cell-based; conditions: ATCC26; Escherichia coli ATCC 26; agar dilution, pH 7; read-out: minimum inhibitory concentration (MIC), EC
Procedure: as §1

HeLa S3 cells = experiment: HeLa S3 Cell Growth Inhibition Test; format: cell-based; conditions: Homo sapiens, 72 hours incubation, Neutral Red
Method in brief: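 HeLa S3 cells seeded overnight in MEM with 10% FBS, then exposed to compound for 72 h at 37 °C. Viable cells stained with Neutral Red, dye extracted, absorbance read at 550 nm; IC50 derived against untreated cells.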

[6] = test system: Sarcoma 180 mouse solid tumor; experiment: Antitumor activity against Sarcoma 180 mouse solid tumor; format: in vivo, mouse (ddY); conditions: Sarcoma-180, iv, 168 h; for response vs control in vivo at 4 mg/kg: 4.0 mg/kg i.v. once
Procedure: To a ddY mouse were intraperitoneally transplanted 5×10^6 sarcoma 180 cells. On the seventh day from the transplant, the cells were collected from the ascites, washed once with sterilized physiological saline, and then diluted with sterilized physiological saline to prepare a cell suspension having a concentration of 5×10^7 cells/mL. This suspension was transplanted in an amount of 0.01 mL to a subcutaneous part of the right axilla of each of male ddY mice each weighing 20±1 g.
A test compound was dissolved in physiological saline containing polyoxyethylene sorbitan monolaurate. At 24 hours after the tumor transplant, 0.2 mL of the solution was intravenously administered to the tail of each of a group of five mice.

[7] = Staphylococcus aureus ATCC 6538P, agar dilution, pH 7, read-out: minimum inhibitory concentration (MIC), SA
[8] = Bacillus substilis No. 10707, agar dilution, pH 7, read-out: minimum inhibitory concentration (MIC), BS
[9] = Klebisiella pneumoniae ATCC 10031, agar dilution, pH 7, read-out: minimum inhibitory concentration (MIC), KP
[10] = HeLa S3, 72 h, HeLa S3, read-out: IC50, HeLa S3 cell growth inhibition
[11] = 24 hours after transplant, tumor volume on day 7, read-out: T/C (tumor volume ratio treated/control)
[12] = Staphylococcus aureus, pH 7, read-out: minimum inhibitory concentration (MIC), SA
[13] = Bacillus, pH 7, read-out: minimum inhibitory concentration (MIC), BS
[14] = pH 7, read-out: minimum inhibitory concentration (MIC), KP
[15] = HeLa S3, 72 h, read-out: IC50, HeLa S3 cell growth inhibition, HeLa S3
[16] = read-out: T/C (tumor volume ratio treated/control)
[17] = 8.0 mg/kg i.v. once, 24 hours after transplant, tumor volume on day 7, read-out: T/C (tumor volume ratio treated/control)
[18] = HeLa S3, read-out: IC50, HeLa S3 cell growth inhibition
[19] = 16 mg/kg i.v. once, 24 hours after transplant, tumor volume on day 7, read-out: T/C (tumor volume ratio treated/control)

COC(=O)NCC(=O)OCSC(=O)C(C)(O)C12CCC(C)=CC(O)C(=O)C=CC=Cc3csc(n3)C(C)N(C(=O)C1)[S+]2[O-] (stereo not shown) [Compound 17]
minimum inhibitory concentration (MIC), EH [1]: 1.3 µg/mL (≈ 1.98 µM) | MIC [2, 7]: 0.65 µg/mL (≈ 0.991 µM) | MIC [3, 8]: 0.65 µg/mL (≈ 0.991 µM) | MIC [4, 9]: 0.65 µg/mL (≈ 0.991 µM) | MIC [5]: 42 µg/mL (≈ 64 µM) | IC50 (HeLa S3 cells; [10]): 15 nM

COC(=O)NCC(=O)OCOC1C=C(C)CCC2(C(C)(O)C(=O)SCOC(=O)CNC(=O)OC)CC(=O)N(C(C)c3nc(cs3)C=CC=CC1=O)[S+]2[O-] (stereo not shown) [Compound 18]
minimum inhibitory concentration (MIC), EH [1]: 5.7 µg/mL (≈ 7.12 µM) | MIC [2, 7]: 11 µg/mL (≈ 13.7 µM) | MIC [3, 8]: 11 µg/mL (≈ 13.7 µM) | MIC [4, 9]: 2.9 µg/mL (≈ 3.62 µM) | IC50 (HeLa S3 cells; [10]): 150 nM | response vs control in vivo at 4 mg/kg [6, 11]: 38%

COC(=O)[C@H](CCC(=O)OCSC(=O)C(C)(O)C12CCC(C)=CC(O)C(=O)C=CC=Cc3csc(n3)C(C)N(C(=O)C1)[S+]2[O-])NC(=O)[C@@]12O[C@H]3COC(C)(C)O[C@H]3[C@@H]1OC(C)(C)O2 (stereo partly shown) [Compound 24]
minimum inhibitory concentration (MIC), EH [1]: 23 µg/mL (≈ 24.5 µM) | MIC [2, 12]: 23 µg/mL (≈ 24.5 µM) | MIC [3, 13]: 23 µg/mL (≈ 24.5 µM) | MIC [4, 14]: 46 µg/mL (≈ 48.9 µM) | IC50 (HeLa S3 cells; [15]): 550 nM | response vs control in vivo at 16 mg/kg [6, 16]: 12%

CC(=O)Oc1ccc(C(=O)OCSC(=O)C(C)(O)C23CC/C(C)=C/C(OC4CCCCO4)C(=O)/C=C/C=C\c4csc(n4)C(C)N(C(=O)C2)[S+]3[O-])cc1 (stereo not shown) [Compound 53]
IC50 (HeLa S3 cells; [10]): 35 nM | response vs control in vivo at 8 mg/kg [6, 17]: 50%

CC(=O)Oc1cccc(C(=O)OCSC(=O)C(C)(O)C23CC/C(C)=C/C(OC4CCCCO4)C(=O)/C=C/C=C\c4csc(n4)C(C)N(C(=O)C2)[S+]3[O-])c1 (stereo not shown) [Compound 54]
IC50 (HeLa S3 cells; [10]): 15 nM | response vs control in vivo at 4 mg/kg [6, 11]: 47%

COC(=O)[C@H](CCC(=O)OCSC(=O)C(C)(O)C12CC/C(C)=C/C(O)C(=O)/C=C/C=C\c3csc(n3)C(C)N(C(=O)C1)[S+]2[O-])NC(=O)[C@@]12O[C@@H](CO)[C@@H](O)[C@@H]1OC(C)(C)O2 (stereo partly shown) [Compound 60]
minimum inhibitory concentration (MIC), EH [1]: 7.3 µg/mL (≈ 8.11 µM) | MIC [2, 12]: 15 µg/mL (≈ 16.7 µM) | MIC [3, 13]: 15 µg/mL (≈ 16.7 µM) | MIC [4, 14]: 15 µg/mL (≈ 16.7 µM) | IC50 (HeLa S3 cells; [15]): 550 nM | response vs control in vivo at 8 mg/kg [6, 16]: 31%

C/C1=C\C(OC2CCCCO2)C(=O)/C=C/C=C\c2csc(n2)C(C)N2C(=O)CC(C(C)(O)C(=O)SCOC(=O)CCNC(=O)[C@@]34O[C@@H](CO)[C@@H](O)[C@@H]3OC(C)(C)O4)(CC1)[S+]2[O-] (stereo partly shown) [Compound 64]
IC50 (HeLa S3 cells; [15]): 35 nM | response vs control in vivo at 8 mg/kg [6, 16]: 43%

COCOCc1oc(=O)oc1CSC(=O)C(C)(O)C12CC/C(C)=C/C(OC3CCCCO3)C(=O)/C=C/C=C\c3csc(n3)C(C)N(C(=O)C1)[S+]2[O-] (stereo not shown) [Compound 78]
IC50 (HeLa S3 cells; [10]): 2.2 nM | response vs control in vivo at 8 mg/kg [6, 17]: 50%

C/C1=C\C(O)C(=O)/C=C/C=C\c2csc(n2)C(C)N2C(=O)CC(C(C)(O)C(=O)SCc3oc(=O)oc3COC3C[C@H](O[Si](C)(C)C(C)(C)C)[C@@H](O[Si](C)(C)C(C)(C)C)[C@H](C)O3)(CC1)[S+]2[O-] (stereo partly shown) [Compound 79]
IC50 (HeLa S3 cells; [18]): 790 nM | response vs control in vivo at 8 mg/kg [6, 17]: 45%

C/C1=C\C(OC2CCCCO2)C(=O)/C=C/C=C\c2csc(n2)C(C)N2C(=O)CC(C(C)(O)C(=O)SCc3oc(=O)oc3COC3C[C@H](O[Si](C)(C)C(C)(C)C)[C@@H](O[Si](C)(C)C(C)(C)C)[C@H](C)O3)(CC1)[S+]2[O-] (stereo partly shown) [Compound 80]
minimum inhibitory concentration (MIC), EH [1]: 3.4 µg/mL (≈ 3.14 µM) | MIC [2, 7]: 3.4 µg/mL (≈ 3.14 µM) | MIC [3, 8]: 0.42 µg/mL (≈ 0.388 µM) | MIC [4, 9]: 27 µg/mL (≈ 25 µM) | IC50 (HeLa S3 cells; [18]): 330 nM | response vs control in vivo at 16 mg/kg [6, 19]: 37%

CC[Si](CC)(CC)OC[C@H]1OC(OCc2oc(=O)oc2CSC(=O)C(C)(O)C23CC/C(C)=C/C(OC4CCCCO4)C(=O)/C=C/C=C\c4csc(n4)C(C)N(C(=O)C2)[S+]3[O-])C[C@@H](O[Si](CC)(CC)CC)[C@@H]1O[Si](CC)(CC)CC (stereo partly shown) [Compound 82]
minimum inhibitory concentration (MIC), EH [1]: 4.2 µg/mL (≈ 3.47 µM) | MIC [2, 7]: 2.1 µg/mL (≈ 1.73 µM) | MIC [4, 9]: 33 µg/mL (≈ 27.2 µM) | IC50 (HeLa S3 cells; [18]): 800 nM | response vs control in vivo at 16 mg/kg [6, 19]: 36%

C/C1=C\C(OC2CCCCO2)C(=O)/C=C/C=C\c2csc(n2)C(C)N2C(=O)CC(C(C)(O)C(=O)SCc3oc(=O)oc3CO)(CC1)[S+]2[O-] (stereo not shown) [Compound 87]
IC50 (HeLa S3 cells; [15]): 33 nM | response vs control in vivo at 16 mg/kg [6, 16]: 40%

C/C1=C\C(O)C(=O)/C=C/C=C\c2csc(n2)C(C)N2C(=O)CC(C(C)(O)C(=O)SCc3oc(=O)oc3COC=O)(CC1)[S+]2[O-] (stereo not shown) [Compound 88]
IC50 (HeLa S3 cells; [15]): 320 nM | response vs control in vivo at 8 mg/kg [6, 16]: 49%
